Assay results reported in patent publication US11767310B2, “Nicotinamide RIPK1 inhibitors” (AbbVie Inc., priority 2021, dated 2023).
Read-outs that look alike come from different tables or passages of the source.

Assays:
Test in all cases: Kinase binding screen
MET(Y1235D) = MET(Y1235D) (Homo sapiens (Human), UniProt P08581, Y1235D); settings: read-out: Percent Control at 100 nM Compound Concentration
EPHA4 = EPHA4 (Homo sapiens (Human), UniProt P54764); settings: read-out: Percent Control at 100 nM Compound Concentration
[1] = molecular target: ABL1(F317L)-nonphosphorylated (Homo sapiens (Human), UniProt P00519, F317L); settings: read-out: Percent Control at 100 nM Compound Concentration
NLK = NLK (Homo sapiens (Human), UniProt Q9UBE8); settings: read-out: Percent Control at 100 nM Compound Concentration
ASK2 = ASK2 (Homo sapiens (Human), UniProt O95382); settings: read-out: Percent Control at 100 nM Compound Concentration
ABL2 = ABL2 (Homo sapiens (Human), UniProt P42684); settings: read-out: Percent Control at 100 nM Compound Concentration
SGK = SGK (Homo sapiens (Human), UniProt O00141); settings: read-out: Percent Control at 100 nM Compound Concentration
CDK9 = CDK9 (Homo sapiens (Human), UniProt P50750); settings: read-out: Percent Control at 100 nM Compound Concentration
PKN2 = PKN2 (Homo sapiens (Human), UniProt Q16513); settings: read-out: Percent Control at 100 nM Compound Concentration
FLT3(ITD,D835V) = test system: FLT3(ITD,D835V); design: species or system human
CDK7 = CDK7 (Homo sapiens (Human), UniProt P50613); settings: read-out: Percent Control at 100 nM Compound Concentration
LYN = LYN (Homo sapiens (Human), UniProt P07948); settings: read-out: Percent Control at 100 nM Compound Concentration
JNK3 = JNK3 (Homo sapiens (Human), UniProt P53779); settings: read-out: Percent Control at 100 nM Compound Concentration
PKAC-alpha = PKAC-alpha (Homo sapiens (Human), UniProt P17612); settings: read-out: Percent Control at 100 nM Compound Concentration
RET = RET (Homo sapiens (Human), UniProt P07949); settings: read-out: Percent Control at 100 nM Compound Concentration
ERBB3 = ERBB3 (Homo sapiens (Human), UniProt P21860); settings: read-out: Percent Control at 100 nM Compound Concentration
TBK1 = TBK1 (Homo sapiens (Human), UniProt Q9UHD2); settings: read-out: Percent Control at 100 nM Compound Concentration
ULK3 = ULK3 (Homo sapiens (Human), UniProt Q6PHR2); settings: read-out: Percent Control at 100 nM Compound Concentration
CAMK4 = CAMK4 (Homo sapiens (Human), UniProt Q16566); settings: read-out: Percent Control at 100 nM Compound Concentration
TTK = TTK (Homo sapiens (Human), UniProt P33981); settings: read-out: Percent Control at 100 nM Compound Concentration
[2] = molecular target: RSK1(Kin.Dom.1-N-terminal) (Homo sapiens (Human), UniProt Q15418); settings: read-out: Percent Control at 100 nM Compound Concentration
PCTK2 = PCTK2 (Homo sapiens (Human), UniProt Q00537); settings: read-out: Percent Control at 100 nM Compound Concentration
SBK1 = SBK1 (Homo sapiens (Human), UniProt Q52WX2); settings: read-out: Percent Control at 100 nM Compound Concentration
KIT(V559D,T670I) = KIT(V559D,T670I) (Homo sapiens (Human), UniProt P10721, T670I/V559D); settings: read-out: Percent Control at 100 nM Compound Concentration
PIK3CD = PIK3CD (Homo sapiens (Human), UniProt O00329); settings: read-out: Percent Control at 100 nM Compound Concentration
TYRO3 = TYRO3 (Homo sapiens (Human), UniProt Q06418); settings: read-out: Percent Control at 100 nM Compound Concentration
CSNK1A1L = CSNK1A1L (Homo sapiens (Human), UniProt Q8N752); settings: read-out: Percent Control at 100 nM Compound Concentration
[3] = molecular target: RSK4(Kin.Dom.1-N-terminal) (Homo sapiens (Human), UniProt Q9UK32); settings: read-out: Percent Control at 100 nM Compound Concentration
STK33 = STK33 (Homo sapiens (Human), UniProt Q9BYT3); settings: read-out: Percent Control at 100 nM Compound Concentration

Chain of PKN2 (Q16513 whole entry): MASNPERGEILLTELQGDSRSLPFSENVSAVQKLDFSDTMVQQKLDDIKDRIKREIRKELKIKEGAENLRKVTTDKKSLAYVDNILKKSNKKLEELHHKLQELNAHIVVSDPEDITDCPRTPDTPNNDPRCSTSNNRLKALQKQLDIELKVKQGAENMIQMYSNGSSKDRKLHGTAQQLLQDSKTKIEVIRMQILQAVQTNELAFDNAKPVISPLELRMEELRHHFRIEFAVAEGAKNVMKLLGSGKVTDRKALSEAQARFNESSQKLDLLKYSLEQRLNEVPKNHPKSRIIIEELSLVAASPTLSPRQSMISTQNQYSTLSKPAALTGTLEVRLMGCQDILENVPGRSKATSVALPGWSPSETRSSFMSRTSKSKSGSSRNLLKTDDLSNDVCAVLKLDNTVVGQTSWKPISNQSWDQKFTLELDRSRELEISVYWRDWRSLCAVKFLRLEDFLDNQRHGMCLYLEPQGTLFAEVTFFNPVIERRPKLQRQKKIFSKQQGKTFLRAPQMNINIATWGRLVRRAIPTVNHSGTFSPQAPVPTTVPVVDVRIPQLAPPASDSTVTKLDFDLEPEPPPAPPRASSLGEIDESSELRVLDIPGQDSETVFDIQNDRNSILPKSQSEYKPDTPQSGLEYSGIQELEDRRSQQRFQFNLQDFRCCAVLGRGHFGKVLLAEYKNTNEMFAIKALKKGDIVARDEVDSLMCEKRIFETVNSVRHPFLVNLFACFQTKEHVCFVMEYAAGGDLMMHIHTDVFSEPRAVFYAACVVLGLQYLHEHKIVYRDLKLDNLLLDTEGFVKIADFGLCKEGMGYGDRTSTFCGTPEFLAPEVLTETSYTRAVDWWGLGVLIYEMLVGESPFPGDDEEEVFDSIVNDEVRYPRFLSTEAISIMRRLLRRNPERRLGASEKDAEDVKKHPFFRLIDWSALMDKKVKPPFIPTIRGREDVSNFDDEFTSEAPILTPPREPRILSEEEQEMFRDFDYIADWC
Chain of JNK3 (P53779 whole entry): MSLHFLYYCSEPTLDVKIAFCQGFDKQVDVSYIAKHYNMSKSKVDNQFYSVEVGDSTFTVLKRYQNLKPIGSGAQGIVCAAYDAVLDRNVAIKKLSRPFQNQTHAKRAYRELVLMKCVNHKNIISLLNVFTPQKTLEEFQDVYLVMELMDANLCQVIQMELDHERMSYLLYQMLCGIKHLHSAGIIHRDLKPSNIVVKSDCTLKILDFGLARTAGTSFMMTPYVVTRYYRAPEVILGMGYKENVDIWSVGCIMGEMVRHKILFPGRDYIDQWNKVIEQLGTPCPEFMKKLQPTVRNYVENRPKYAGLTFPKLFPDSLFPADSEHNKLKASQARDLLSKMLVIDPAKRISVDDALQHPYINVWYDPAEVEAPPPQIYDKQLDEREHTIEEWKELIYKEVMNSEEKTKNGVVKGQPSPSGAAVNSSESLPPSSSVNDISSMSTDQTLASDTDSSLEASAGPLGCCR
Chain of KIT(V559D,T670I) (P10721 26-976 V559D/T670I): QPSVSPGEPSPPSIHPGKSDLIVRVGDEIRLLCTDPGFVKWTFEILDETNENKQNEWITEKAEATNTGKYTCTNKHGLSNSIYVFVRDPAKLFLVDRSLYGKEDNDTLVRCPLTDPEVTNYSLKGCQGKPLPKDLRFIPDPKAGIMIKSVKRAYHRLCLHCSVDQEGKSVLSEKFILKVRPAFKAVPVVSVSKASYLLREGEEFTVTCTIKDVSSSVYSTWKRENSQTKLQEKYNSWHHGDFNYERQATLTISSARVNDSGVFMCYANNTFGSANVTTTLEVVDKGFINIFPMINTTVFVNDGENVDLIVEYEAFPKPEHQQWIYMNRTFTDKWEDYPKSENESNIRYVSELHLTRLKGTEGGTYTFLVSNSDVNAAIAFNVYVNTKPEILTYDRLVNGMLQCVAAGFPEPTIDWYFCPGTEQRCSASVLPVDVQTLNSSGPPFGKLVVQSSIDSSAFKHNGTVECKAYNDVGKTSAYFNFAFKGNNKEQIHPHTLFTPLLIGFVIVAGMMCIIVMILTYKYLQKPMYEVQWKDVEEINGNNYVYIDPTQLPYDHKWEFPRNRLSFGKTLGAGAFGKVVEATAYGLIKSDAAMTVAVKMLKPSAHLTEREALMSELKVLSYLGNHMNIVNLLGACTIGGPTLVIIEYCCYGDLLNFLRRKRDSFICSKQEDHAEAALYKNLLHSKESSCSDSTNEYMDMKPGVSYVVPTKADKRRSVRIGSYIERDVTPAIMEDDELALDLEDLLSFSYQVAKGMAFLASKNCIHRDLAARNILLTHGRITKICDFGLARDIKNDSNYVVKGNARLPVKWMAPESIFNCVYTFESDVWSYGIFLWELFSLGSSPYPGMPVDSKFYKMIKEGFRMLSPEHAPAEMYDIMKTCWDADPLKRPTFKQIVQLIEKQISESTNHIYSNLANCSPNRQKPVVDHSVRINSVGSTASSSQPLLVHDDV
Chain of ERBB3 (P21860 20-1342): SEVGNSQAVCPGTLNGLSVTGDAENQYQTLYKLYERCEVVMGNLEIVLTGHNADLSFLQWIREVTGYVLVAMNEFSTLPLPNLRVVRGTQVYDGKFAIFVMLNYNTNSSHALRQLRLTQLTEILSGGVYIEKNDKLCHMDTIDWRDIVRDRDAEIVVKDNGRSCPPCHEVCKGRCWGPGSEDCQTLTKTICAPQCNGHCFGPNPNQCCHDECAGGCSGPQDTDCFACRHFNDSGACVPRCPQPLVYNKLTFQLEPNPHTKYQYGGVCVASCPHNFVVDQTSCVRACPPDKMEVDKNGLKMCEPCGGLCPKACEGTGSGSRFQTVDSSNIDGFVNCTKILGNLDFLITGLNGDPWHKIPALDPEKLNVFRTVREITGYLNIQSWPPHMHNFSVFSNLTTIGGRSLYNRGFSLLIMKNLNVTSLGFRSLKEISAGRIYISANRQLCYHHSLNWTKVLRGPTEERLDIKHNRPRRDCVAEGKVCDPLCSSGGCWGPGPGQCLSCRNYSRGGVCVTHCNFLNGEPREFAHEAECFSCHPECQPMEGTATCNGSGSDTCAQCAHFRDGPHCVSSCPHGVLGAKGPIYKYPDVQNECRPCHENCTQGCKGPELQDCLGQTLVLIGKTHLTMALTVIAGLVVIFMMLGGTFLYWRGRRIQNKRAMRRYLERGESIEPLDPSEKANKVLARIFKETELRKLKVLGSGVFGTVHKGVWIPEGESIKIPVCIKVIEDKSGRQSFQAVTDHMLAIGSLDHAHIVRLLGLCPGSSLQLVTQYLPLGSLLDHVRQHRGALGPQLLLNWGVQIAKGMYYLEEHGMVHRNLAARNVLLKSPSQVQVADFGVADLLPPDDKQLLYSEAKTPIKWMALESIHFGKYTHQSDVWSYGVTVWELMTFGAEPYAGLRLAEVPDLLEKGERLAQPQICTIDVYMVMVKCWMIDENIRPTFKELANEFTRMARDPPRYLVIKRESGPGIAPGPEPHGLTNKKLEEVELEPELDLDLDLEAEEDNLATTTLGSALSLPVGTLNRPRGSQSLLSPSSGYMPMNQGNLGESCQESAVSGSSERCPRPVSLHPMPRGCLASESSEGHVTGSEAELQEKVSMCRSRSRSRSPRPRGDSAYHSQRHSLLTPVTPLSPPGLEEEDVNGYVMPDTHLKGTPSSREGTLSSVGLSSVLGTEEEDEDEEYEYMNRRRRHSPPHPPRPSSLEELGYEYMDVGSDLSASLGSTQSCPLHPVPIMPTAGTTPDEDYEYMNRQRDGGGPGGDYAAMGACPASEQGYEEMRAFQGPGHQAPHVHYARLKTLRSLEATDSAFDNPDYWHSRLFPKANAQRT
Chain of LYN (P07948 whole entry): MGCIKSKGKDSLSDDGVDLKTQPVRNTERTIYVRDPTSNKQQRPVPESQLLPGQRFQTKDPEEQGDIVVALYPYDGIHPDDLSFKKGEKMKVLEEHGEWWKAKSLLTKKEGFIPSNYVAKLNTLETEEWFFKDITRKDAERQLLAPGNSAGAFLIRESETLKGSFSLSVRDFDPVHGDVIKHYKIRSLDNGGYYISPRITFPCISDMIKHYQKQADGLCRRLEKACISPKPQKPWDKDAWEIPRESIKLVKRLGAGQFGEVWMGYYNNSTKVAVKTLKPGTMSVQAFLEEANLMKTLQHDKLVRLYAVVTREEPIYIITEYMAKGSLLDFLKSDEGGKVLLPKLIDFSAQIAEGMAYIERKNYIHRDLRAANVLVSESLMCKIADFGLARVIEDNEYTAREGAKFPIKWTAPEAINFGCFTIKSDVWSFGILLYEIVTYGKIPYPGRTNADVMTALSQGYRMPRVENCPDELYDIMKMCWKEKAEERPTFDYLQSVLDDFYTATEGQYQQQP
Chain of SGK (O00141 whole entry): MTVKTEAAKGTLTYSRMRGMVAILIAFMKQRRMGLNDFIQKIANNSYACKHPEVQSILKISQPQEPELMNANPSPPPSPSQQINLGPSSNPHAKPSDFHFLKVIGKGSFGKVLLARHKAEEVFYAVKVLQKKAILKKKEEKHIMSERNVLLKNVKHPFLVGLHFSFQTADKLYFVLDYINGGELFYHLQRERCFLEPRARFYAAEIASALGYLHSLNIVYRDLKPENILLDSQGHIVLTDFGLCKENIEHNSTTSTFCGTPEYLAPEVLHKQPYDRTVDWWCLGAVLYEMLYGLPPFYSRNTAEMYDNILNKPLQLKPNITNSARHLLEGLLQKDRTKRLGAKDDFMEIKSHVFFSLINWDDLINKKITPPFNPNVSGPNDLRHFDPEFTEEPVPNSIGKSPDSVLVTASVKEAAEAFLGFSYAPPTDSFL
Chain of CDK9 (P50750 whole entry): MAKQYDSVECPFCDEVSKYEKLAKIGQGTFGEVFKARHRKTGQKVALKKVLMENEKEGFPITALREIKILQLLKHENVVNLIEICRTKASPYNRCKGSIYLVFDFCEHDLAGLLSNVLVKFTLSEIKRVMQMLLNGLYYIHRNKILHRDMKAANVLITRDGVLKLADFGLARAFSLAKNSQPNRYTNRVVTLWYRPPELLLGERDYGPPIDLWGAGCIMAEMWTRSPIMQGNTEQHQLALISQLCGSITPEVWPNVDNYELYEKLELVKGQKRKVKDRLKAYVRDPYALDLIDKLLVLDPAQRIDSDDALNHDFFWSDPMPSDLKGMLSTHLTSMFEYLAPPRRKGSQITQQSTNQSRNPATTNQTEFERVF

CN(C[C@H](Cc1ccccc1)OP(=O)(O)O)C(=O)c1cncc(C#Cc2cnn(C(F)F)c2)c1 [Example 19, (S)-1-(5-((1-(difluoromethyl)-1H-pyrazol-4-yl)ethynyl)-N-methylnicotinamido)-3-phenylpropan-2-yl dihydrogen phosphate]
remaining activity at 0.1 µM (MET(Y1235D)): 99% | remaining activity at 0.1 µM (EPHA4): 96% | remaining activity at 0.1 µM [1]: 100% | remaining activity at 0.1 µM (NLK): 100% | remaining activity at 0.1 µM (ASK2): 98% | remaining activity at 0.1 µM (ABL2): 98% | remaining activity at 0.1 µM (SGK): 90% | remaining activity at 0.1 µM (CDK9): 100% | remaining activity at 0.1 µM (PKN2): 100% | Percent Control at 100 nM Compound Concentration (FLT3(ITD,D835V)): 100% | remaining activity at 0.1 µM (CDK7): 100% | remaining activity at 0.1 µM (LYN): 80% | remaining activity at 0.1 µM (JNK3): 86% | remaining activity at 0.1 µM (PKAC-alpha): 94% | remaining activity at 0.1 µM (RET): 100% | remaining activity at 0.1 µM (ERBB3): 100% | remaining activity at 0.1 µM (TBK1): 84% | remaining activity at 0.1 µM (ULK3): 96% | remaining activity at 0.1 µM (CAMK4): 100% | remaining activity at 0.1 µM (TTK): 82% | remaining activity at 0.1 µM [2]: 100% | remaining activity at 0.1 µM (PCTK2): 100% | remaining activity at 0.1 µM (SBK1): 95% | remaining activity at 0.1 µM (KIT(V559D,T670I)): 100% | remaining activity at 0.1 µM (PIK3CD): 85% | remaining activity at 0.1 µM (TYRO3): 100% | remaining activity at 0.1 µM (CSNK1A1L): 97% | remaining activity at 0.1 µM [3]: 93% | remaining activity at 0.1 µM (STK33): 100%

CN(C[C@@H](O)Cc1ccccc1)C(=O)c1cncc(C#Cc2cnn(C(F)F)c2)c1 [Example 2, (S)-5-((1-(difluoromethyl)-1H-pyrazol-4-yl)ethynyl)-N-(2-hydroxy-3-phenylpropyl)-N-methylnicotinamide]
remaining activity at 0.1 µM (MET(Y1235D); MET(Y1235D)): 98% | remaining activity at 0.1 µM (EPHA4; EPHA4): 97% | remaining activity at 0.1 µM ([1]; ABL1(F317L)-nonphosphorylated): 100% | remaining activity at 0.1 µM (NLK; NLK): 100% | remaining activity at 0.1 µM (ASK2; ASK2): 100% | remaining activity at 0.1 µM (ABL2; ABL2): 100% | remaining activity at 0.1 µM (SGK; SGK): 96% | remaining activity at 0.1 µM (CDK9; CDK9): 100% | remaining activity at 0.1 µM (PKN2; PKN2): 97% | Percent Control at 100 nM Compound Concentration (FLT3(ITD,D835V)): 100% | remaining activity at 0.1 µM (CDK7; CDK7): 100% | remaining activity at 0.1 µM (LYN; LYN): 71% | remaining activity at 0.1 µM (JNK3; JNK3): 83% | remaining activity at 0.1 µM (PKAC-alpha; PKAC-alpha): 94% | remaining activity at 0.1 µM (RET; RET): 100% | remaining activity at 0.1 µM (ERBB3; ERBB3): 100% | remaining activity at 0.1 µM (TBK1; TBK1): 79% | remaining activity at 0.1 µM (ULK3; ULK3): 97% | remaining activity at 0.1 µM (CAMK4; CAMK4): 100% | remaining activity at 0.1 µM (TTK; TTK): 100% | remaining activity at 0.1 µM ([2]; RSK1(Kin.Dom.1-N-terminal)): 96% | remaining activity at 0.1 µM (PCTK2; PCTK2): 100% | remaining activity at 0.1 µM (SBK1; SBK1): 97% | remaining activity at 0.1 µM (KIT(V559D,T670I); KIT(V559D,T670I)): 97% | remaining activity at 0.1 µM (PIK3CD; PIK3CD): 99% | remaining activity at 0.1 µM (TYRO3; TYRO3): 99% | remaining activity at 0.1 µM (CSNK1A1L; CSNK1A1L): 100% | remaining activity at 0.1 µM ([3]; RSK4(Kin.Dom.1-N-terminal)): 100% | remaining activity at 0.1 µM (STK33; STK33): 88%
